Assay results published in ChEMBL document CHEMBL6178021, “Optimization of Tambjamines Active against Multiple Stages of Malaria Parasites” (J Med Chem, 2025).
In brackets after ≈: the same amount, converted by molar mass.

How the values were obtained:
in vitro [1] = conditions: mouse, liver microsomes
HepG2 = assay: Cytotoxicity against human HepG2 cells assessed as cell viability measured after 48 hrs by MTT assay; assay type: toxicity, cell-based; conditions: hepg2
[2] = Solubility of the compound in potassium phosphate buffer at pH 7.4 by UV-vis spectroscopy; conditions: buffer
Plasmodium falciparum [3] = assay: microbe, parasite or virus in culture; conditions: Dd2, 72 h
Description: Antiplasmodial activity against asexual blood-stage Plasmodium falciparum Dd2 using 2% haematocrit and 0.2% parasitemia assessed as reduction in fluorescence measured after 72 hrs by Malaria SYBR Green I-based Fluorescence (MSF) assay

Plasmodium falciparum [4] = assay: Antiplasmodial activity against asexual blood-stage Plasmodium falciparum Tm90-C2B using 2% haematocrit and 0.2% parasitemia assessed as reduction in fluorescence measured after 72 hrs by Malaria SYBR Green I-based Fluorescence (MSF) assay; assay type: functional, organism-based
in vitro [5] = conditions: human, liver microsomes
Plasmodium falciparum [6] = assay: microbe, parasite or virus in culture; conditions: D6, 72 h
Description: Antiplasmodial activity against asexual blood-stage Plasmodium falciparum D6 using 2% haematocrit and 0.2% parasitemia assessed as reduction in fluorescence measured after 72 hrs by Malaria SYBR Green I-based Fluorescence (MSF) assay

[7] = Metabolic stability in human liver microsomes assessed as half life measured up to 60 mins by LC/MS analysis; assay type: ADME, Microsome
[8] = (§1) Apparent permeability across basolateral to apical side in MDCK transfected with human MDR1 cells incubated for 1 hr by LC-MS analysis; conditions: dog, mdck, 1 h
[9] = Metabolic stability in mouse liver microsomes assessed as half life measured up to 60 mins by LC/MS analysis; assay type: ADME, Microsome
Plasmodium yoelii [10] = assay: Antimalarial activity against erythrocytic Plasmodium yoelii MRA-428 infected in CF1 mouse assessed as reduction in parasitemia at 10 mg/kg, po once daily for 4 days measured on day 5; assay type: functional; parameters: scale not given: the % may be the effect or the level left; conditions: time 4 day
Plasmodium yoelii [11] = assay: Antimalarial activity against erythrocytic Plasmodium yoelii MRA-428 infected in CF1 mouse assessed as cured mouse at 25 mg/kg, po once daily for 4 days measured on day 28 day; assay type: functional, organism-based; conditions: time 4.0 day
Plasmodium yoelii [12] = assay: Antimalarial activity against erythrocytic Plasmodium yoelii MRA-428 infected in CF1 mouse assessed as reduction in parasitemia at 25 mg/kg, po once daily for 4 days measured on day 5; assay type: functional; parameters: scale not given: the % may be the effect or the level left; conditions: time 4 day
Plasmodium yoelii [13] = assay: Antimalarial activity against erythrocytic Plasmodium yoelii MRA-428 infected in CF1 mouse assessed as cured mouse at 50 mg/kg, po once daily for 4 days measured on day 28 day; assay type: functional, organism-based; conditions: time 4.0 day
MDR1 (human) [14] = assay: (§2) Apparent permeability across apical to basolateral side in MDCK transfected with human MDR1 cells incubated for 1 hr by LC-MS analysis; conditions: dog, MDCK-MDR1
Plasmodium yoelii [15] = assay: Antimalarial activity against erythrocytic Plasmodium yoelii MRA-428 infected in CF1 mouse assessed as reduction in parasitemia at 50 mg/kg, po once daily for 4 days measured on day 5; assay type: functional; parameters: scale not given: the % may be the effect or the level left; conditions: time 4 day
[16] = as §2; conditions: dog, mdck, 1 h
MDR1 (human) [17] = assay: Efflux ratio, ratio of apparent permeability across apical to basolateral side over basolateral to apical side in MDCK transfected with human MDR1 cells incubated for 1 hr by LC-MS analysis; conditions: dog
Plasmodium yoelii [18] = assay: Antimalarial activity against erythrocytic Plasmodium yoelii MRA-428 infected in CF1 mouse assessed as reduction in parasitemia at 80 mg/kg, po once daily for 4 days measured on day 5; assay type: functional; parameters: scale not given: the % may be the effect or the level left; conditions: time 4 day
Plasmodium yoelii [19] = assay: Antimalarial activity against erythrocytic Plasmodium yoelii MRA-428 infected in CF1 mouse assessed as cured mouse at 80 mg/kg, po once daily for 4 days measured on day 28 day; assay type: functional, organism-based; conditions: time 4.0 day
MDR1 (human) [20] = assay: as §1; conditions: dog, MDCK-MDR1
in vitro [21] = conditions: human
Description: Selectivity index, ratio of IC50 for cytotoxicity against human HepG2 cells to IC50 for antiplasmodial activity against asexual blood-stage Plasmodium falciparum D6

| SMILES | microsomal CLint at 1 h (in vitro [1]) [µL/min/mg] | IC50 (HepG2) [nM] | solubility [2] [µM] | IC50 (Plasmodium falciparum [3]) [nM] | IC50 (Plasmodium falciparum [4]) [nM] | microsomal CLint at 1 h (in vitro [5]) [µL/min/mg] | IC50 (Plasmodium falciparum [6]) [nM] | half-life [7] [h] | Papp [8] [×10⁻⁶ cm/s] | half-life [9] [h] | Activity (Plasmodium yoelii [10]) [%] | Activity (Plasmodium yoelii [11]) | Activity (Plasmodium yoelii [12]) [%] | Activity (Plasmodium yoelii [13]) | Papp A→B at 1 h (MDR1 (human) [14]) [×10⁻⁶ cm/s] | Activity (Plasmodium yoelii [15]) [%] | efflux ratio at 1 h (MDR1 (human) [17]) | selectivity ratio (in vitro [21]) | further results |
| --- | --- | --- | --- | --- | --- | --- | --- | --- | --- | --- | --- | --- | --- | --- | --- | --- | --- | --- | --- |
| COc1ccc(Cc2ccc(C3=N/C(=C\NC4CCCCCC4)C4=C3OCCO4)[nH]2)cc1 | 20.6 | 1480 | 5.52 (≈ 2.39 µg/mL) | 21.3 | 15.1 | 16.1 | 11.9 | > 1 | 0.57 | > 1 | 1.5 |  |  |  |  |  |  |  |  |
| CCC1=C(CC)/C(=C/NC2CCCCCC2)N=C1c1ccc(C)[nH]1 | 16.6 | 4220 | 35.9 (≈ 11.7 µg/mL) | 3.83 | 9.02 | 18.3 | 4.47 | > 1 | 0.45 | > 1 | 92.2 | Not active; None Of The Mouse Cured Out Of Four Tested | 100 | Not active; None Of The Mouse Cured Out Of Four Tested | 0.007 | 100 |  |  |  |
| COc1ccc(Cc2ccc(C3=N/C(=C\NC4CCCCCC4)C4=C3CCCC4)[nH]2)cc1 | 2.07 | 1340 | 11.4 (≈ 4.9 µg/mL) | 5.56 | 2.8 | 3.18 | 6.1 | > 1 |  | > 1 | 0 |  | 0 |  |  |  |  |  | Papp [16]: 0.7 ×10⁻⁶ cm/s |
| CCC1=C(CC)/C(=C/NC2CCCCC2)N=C1c1ccc(Br)[nH]1 | 16 |  | 4.46 (≈ 1.68 µg/mL) | 336 | 172 |  |  | > 1 | 0.15 | > 1 |  |  |  |  | 0.004 |  | 0.038 |  |  |
| CCC1=C(CC)/C(=C/N[C@H]2CC[C@H](C)CC2)N=C1c1ccc[nH]1 | 37 |  | 205 (≈ 63.9 µg/mL) | 89.3 | 97.1 | 59.5 | 67.9 |  |  |  | 88.8 | Active; Two Mouse Cured Out Of Four | 100 | Active; Two Mouse Cured Out Of Four | 0.015 | 100 | 8.7 | 235 | Activity (Plasmodium yoelii [18]): 100%; Activity (Plasmodium yoelii [19]): Not active; None Of The Mouse Cured Out Of Four Tested; Papp B→A at 1 h (MDR1 (human) [20]): 0.13 ×10⁻⁶ cm/s |
| CCC1=C(CC)/C(=C/NC2CCCCCCC2)N=C1c1ccc(CC)[nH]1 | 14.6 | 2720 | < 3.125 | 7.21 | 7.8 | 7 | 15.9 | > 1 | 0.28 | > 1 | 63.1 | Not active; None Of The Mouse Cured Out Of Four Tested | 100 | Not active; None Of The Mouse Cured Out Of Four Tested |  | 100 |  |  |  |
| CCC1=C(CC)/C(=C/NC23C[C@H]4C[C@@H](C2)C[C@@H](C3)C4)N=C1c1ccc(Br)[nH]1 | 7.36 | 4020 | 25.8 (≈ 11.1 µg/mL) | 24.6 | 15.6 | 14.4 | 18.1 | > 1 | 0.39 | > 1 | 33.1 |  | 67.1 |  | 0.002 |  | 0.23 | 222 |  |
| CCC1=C(CC)/C(=C/NC23C[C@H]4C[C@@H](C2)C[C@@H](C3)C4)N=C1c1cc2cc(Cl)ccc2[nH]1 | 4.72 | 5020 | 18.3 (≈ 7.94 µg/mL) | 133 | 175 | 8.8 | 106 | > 1 | 0.85 | > 1 |  |  |  |  | 0.002 |  | 0.37 | 47 |  |
